Test results from the NIST ThermoML archive (doi:10.1021/je800609u).
Numbers after ± are expanded uncertainties.

Key:
[1] = osmotic coefficient (dimensionless); mn = molality of the nth substance listed, in mol/kg; conditions: Liquid, vapor pressure osmometery method
[2] = refractive index (Na D-line) (dimensionless); mn = molality of the nth substance listed, in mol/kg; conditions: 101 kPa, Liquid

CCCCn1cc[n+](C)c1.[Cl-] [1-butyl-3-methylimidazolium chloride] + O
Conditions | osmotic coefficient, 298.15 K | osmotic coefficient, 308.15 K | osmotic coefficient, 318.15 K | osmotic coefficient, 328.15 K | refractive index, 298.15 K | refractive index, 308.15 K | refractive index, 318.15 K | refractive index, 328.15 K
[1], m1 = 0.0105 | 1 ± 0.012 | 0.948 ± 0.012 | 0.958 ± 0.012 | 0.978 ± 0.012 | – | – | – | –
[1], m1 = 0.023 | 0.958 ± 0.012 | 0.929 ± 0.012 | 0.932 ± 0.012 | 0.939 ± 0.012 | – | – | – | –
[1], m1 = 0.0289 | 0.932 ± 0.012 | 0.924 ± 0.012 | 0.935 ± 0.012 | 0.938 ± 0.012 | – | – | – | –
[1], m1 = 0.0398 | 0.892 ± 0.013 | 0.911 ± 0.012 | 0.916 ± 0.012 | 0.921 ± 0.012 | – | – | – | –
[1], m1 = 0.0621 | 0.855 ± 0.013 | 0.866 ± 0.013 | 0.881 ± 0.013 | 0.906 ± 0.012 | – | – | – | –
[1], m1 = 0.0803 | 0.833 ± 0.013 | 0.861 ± 0.013 | 0.869 ± 0.013 | 0.873 ± 0.013 | – | – | – | –
[1], m1 = 0.0986 | 0.827 ± 0.013 | 0.864 ± 0.013 | 0.865 ± 0.013 | 0.867 ± 0.013 | – | – | – | –
[1], m1 = 0.1413 | 0.814 ± 0.014 | 0.844 ± 0.013 | 0.857 ± 0.013 | 0.862 ± 0.013 | – | – | – | –
[1], m1 = 0.1816 | 0.789 ± 0.014 | 0.817 ± 0.014 | 0.823 ± 0.014 | 0.832 ± 0.013 | – | – | – | –
[1], m1 = 0.2223 | 0.779 ± 0.014 | 0.794 ± 0.014 | 0.807 ± 0.014 | 0.822 ± 0.014 | – | – | – | –
[1], m1 = 0.2764 | 0.772 ± 0.014 | 0.79 ± 0.014 | 0.797 ± 0.014 | 0.81 ± 0.014 | – | – | – | –
[1], m1 = 0.3386 | 0.768 ± 0.015 | 0.779 ± 0.014 | 0.798 ± 0.014 | 0.803 ± 0.014 | – | – | – | –
[1], m1 = 0.371 | 0.764 ± 0.015 | 0.775 ± 0.014 | 0.784 ± 0.014 | 0.79 ± 0.014 | – | – | – | –
[1], m1 = 0.4863 | 0.735 ± 0.015 | 0.747 ± 0.015 | 0.762 ± 0.015 | 0.775 ± 0.014 | – | – | – | –
[1], m1 = 0.599 | 0.718 ± 0.016 | 0.738 ± 0.015 | 0.75 ± 0.015 | 0.759 ± 0.015 | – | – | – | –
[1], m1 = 0.7152 | 0.716 ± 0.016 | 0.731 ± 0.015 | 0.748 ± 0.015 | 0.755 ± 0.015 | – | – | – | –
[1], m1 = 0.9754 | 0.699 ± 0.016 | 0.709 ± 0.016 | 0.723 ± 0.015 | 0.733 ± 0.015 | – | – | – | –
[1], m1 = 1.492 | 0.686 ± 0.016 | 0.692 ± 0.016 | 0.713 ± 0.016 | 0.719 ± 0.016 | – | – | – | –
[1], m1 = 2 | 0.686 ± 0.016 | 0.694 ± 0.016 | 0.706 ± 0.016 | 0.721 ± 0.016 | – | – | – | –
[1], m1 = 2.962 | 0.711 ± 0.016 | 0.721 ± 0.016 | 0.729 ± 0.015 | 0.744 ± 0.015 | – | – | – | –
[2], m1 = 0.0105 | – | – | – | – | 1.333 ± 0.0006 | 1.3317 ± 0.0006 | 1.3292 ± 0.0006 | 1.3273 ± 0.0006
[2], m1 = 0.023 | – | – | – | – | 1.3334 ± 0.0006 | 1.332 ± 0.0006 | 1.3295 ± 0.0006 | 1.3275 ± 0.0006
[2], m1 = 0.0289 | – | – | – | – | 1.3335 ± 0.0006 | 1.3323 ± 0.0006 | 1.3296 ± 0.0006 | 1.3277 ± 0.0006
[2], m1 = 0.0398 | – | – | – | – | 1.334 ± 0.0006 | 1.3326 ± 0.0006 | 1.33 ± 0.0006 | 1.328 ± 0.0006
[2], m1 = 0.0621 | – | – | – | – | 1.3343 ± 0.0006 | 1.333 ± 0.0006 | 1.3305 ± 0.0006 | 1.3288 ± 0.0006
[2], m1 = 0.0803 | – | – | – | – | 1.3349 ± 0.0006 | 1.3336 ± 0.0006 | 1.331 ± 0.0006 | 1.329 ± 0.0006
[2], m1 = 0.0986 | – | – | – | – | 1.3354 ± 0.0006 | 1.3341 ± 0.0006 | 1.3312 ± 0.0006 | 1.3297 ± 0.0006
[2], m1 = 0.1413 | – | – | – | – | 1.3366 ± 0.0006 | 1.3351 ± 0.0006 | 1.3325 ± 0.0006 | 1.3309 ± 0.0006
[2], m1 = 0.1816 | – | – | – | – | 1.3377 ± 0.0006 | 1.3363 ± 0.0006 | 1.3338 ± 0.0006 | 1.3319 ± 0.0006
[2], m1 = 0.2223 | – | – | – | – | 1.3388 ± 0.0006 | 1.3373 ± 0.0006 | 1.3346 ± 0.0006 | 1.3331 ± 0.0006
[2], m1 = 0.2764 | – | – | – | – | 1.3404 ± 0.0006 | 1.3389 ± 0.0006 | 1.3362 ± 0.0006 | 1.3343 ± 0.0006
[2], m1 = 0.3386 | – | – | – | – | 1.3419 ± 0.0006 | 1.3403 ± 0.0006 | 1.3377 ± 0.0006 | 1.3358 ± 0.0006
[2], m1 = 0.371 | – | – | – | – | 1.3428 ± 0.0006 | 1.3416 ± 0.0006 | 1.3387 ± 0.0006 | 1.3369 ± 0.0006
[2], m1 = 0.4863 | – | – | – | – | 1.3457 ± 0.0006 | 1.3441 ± 0.0006 | 1.3415 ± 0.0006 | 1.3398 ± 0.0006
[2], m1 = 0.599 | – | – | – | – | 1.3484 ± 0.0006 | 1.3469 ± 0.0006 | 1.3442 ± 0.0006 | 1.3422 ± 0.0006
[2], m1 = 0.7152 | – | – | – | – | 1.3512 ± 0.0006 | 1.3497 ± 0.0006 | 1.3467 ± 0.0006 | 1.3449 ± 0.0006
[2], m1 = 0.9754 | – | – | – | – | 1.3571 ± 0.0006 | 1.3562 ± 0.0006 | 1.3528 ± 0.0006 | 1.3508 ± 0.0006
[2], m1 = 1.492 | – | – | – | – | 1.3679 ± 0.0006 | 1.3661 ± 0.0006 | 1.3631 ± 0.0006 | 1.3611 ± 0.0006
[2], m1 = 2 | – | – | – | – | 1.3774 ± 0.0006 | 1.3754 ± 0.0006 | 1.3723 ± 0.0006 | 1.3703 ± 0.0006
[2], m1 = 2.962 | – | – | – | – | 1.3923 ± 0.0006 | 1.3904 ± 0.0006 | 1.3872 ± 0.0006 | 1.3849 ± 0.0006
